Reference: US7153865B2, “N-type calcium channel antagonists for the treatment of pain” (Astrazeneca AB, priority 2001, dated 2006)

Tests used:
[1] = tested on: formalin-induced nocifensive behaviours; test: Formalin test; type: in vivo, rats; conditions: dose 60, time 40, route IP (units of dose and time not given)
N-type calcium channel = N-type calcium channel (Homo sapiens, UniProt Q00975); test: N-channel FLIPR (Fluorescent Laser Imaging Plate Reader) assay; type: cell-based; conditions: differentiated IMR32 cells, 80 mM K+ stimulus; unit inferred
Chain of N-type calcium channel (Q00975 whole entry): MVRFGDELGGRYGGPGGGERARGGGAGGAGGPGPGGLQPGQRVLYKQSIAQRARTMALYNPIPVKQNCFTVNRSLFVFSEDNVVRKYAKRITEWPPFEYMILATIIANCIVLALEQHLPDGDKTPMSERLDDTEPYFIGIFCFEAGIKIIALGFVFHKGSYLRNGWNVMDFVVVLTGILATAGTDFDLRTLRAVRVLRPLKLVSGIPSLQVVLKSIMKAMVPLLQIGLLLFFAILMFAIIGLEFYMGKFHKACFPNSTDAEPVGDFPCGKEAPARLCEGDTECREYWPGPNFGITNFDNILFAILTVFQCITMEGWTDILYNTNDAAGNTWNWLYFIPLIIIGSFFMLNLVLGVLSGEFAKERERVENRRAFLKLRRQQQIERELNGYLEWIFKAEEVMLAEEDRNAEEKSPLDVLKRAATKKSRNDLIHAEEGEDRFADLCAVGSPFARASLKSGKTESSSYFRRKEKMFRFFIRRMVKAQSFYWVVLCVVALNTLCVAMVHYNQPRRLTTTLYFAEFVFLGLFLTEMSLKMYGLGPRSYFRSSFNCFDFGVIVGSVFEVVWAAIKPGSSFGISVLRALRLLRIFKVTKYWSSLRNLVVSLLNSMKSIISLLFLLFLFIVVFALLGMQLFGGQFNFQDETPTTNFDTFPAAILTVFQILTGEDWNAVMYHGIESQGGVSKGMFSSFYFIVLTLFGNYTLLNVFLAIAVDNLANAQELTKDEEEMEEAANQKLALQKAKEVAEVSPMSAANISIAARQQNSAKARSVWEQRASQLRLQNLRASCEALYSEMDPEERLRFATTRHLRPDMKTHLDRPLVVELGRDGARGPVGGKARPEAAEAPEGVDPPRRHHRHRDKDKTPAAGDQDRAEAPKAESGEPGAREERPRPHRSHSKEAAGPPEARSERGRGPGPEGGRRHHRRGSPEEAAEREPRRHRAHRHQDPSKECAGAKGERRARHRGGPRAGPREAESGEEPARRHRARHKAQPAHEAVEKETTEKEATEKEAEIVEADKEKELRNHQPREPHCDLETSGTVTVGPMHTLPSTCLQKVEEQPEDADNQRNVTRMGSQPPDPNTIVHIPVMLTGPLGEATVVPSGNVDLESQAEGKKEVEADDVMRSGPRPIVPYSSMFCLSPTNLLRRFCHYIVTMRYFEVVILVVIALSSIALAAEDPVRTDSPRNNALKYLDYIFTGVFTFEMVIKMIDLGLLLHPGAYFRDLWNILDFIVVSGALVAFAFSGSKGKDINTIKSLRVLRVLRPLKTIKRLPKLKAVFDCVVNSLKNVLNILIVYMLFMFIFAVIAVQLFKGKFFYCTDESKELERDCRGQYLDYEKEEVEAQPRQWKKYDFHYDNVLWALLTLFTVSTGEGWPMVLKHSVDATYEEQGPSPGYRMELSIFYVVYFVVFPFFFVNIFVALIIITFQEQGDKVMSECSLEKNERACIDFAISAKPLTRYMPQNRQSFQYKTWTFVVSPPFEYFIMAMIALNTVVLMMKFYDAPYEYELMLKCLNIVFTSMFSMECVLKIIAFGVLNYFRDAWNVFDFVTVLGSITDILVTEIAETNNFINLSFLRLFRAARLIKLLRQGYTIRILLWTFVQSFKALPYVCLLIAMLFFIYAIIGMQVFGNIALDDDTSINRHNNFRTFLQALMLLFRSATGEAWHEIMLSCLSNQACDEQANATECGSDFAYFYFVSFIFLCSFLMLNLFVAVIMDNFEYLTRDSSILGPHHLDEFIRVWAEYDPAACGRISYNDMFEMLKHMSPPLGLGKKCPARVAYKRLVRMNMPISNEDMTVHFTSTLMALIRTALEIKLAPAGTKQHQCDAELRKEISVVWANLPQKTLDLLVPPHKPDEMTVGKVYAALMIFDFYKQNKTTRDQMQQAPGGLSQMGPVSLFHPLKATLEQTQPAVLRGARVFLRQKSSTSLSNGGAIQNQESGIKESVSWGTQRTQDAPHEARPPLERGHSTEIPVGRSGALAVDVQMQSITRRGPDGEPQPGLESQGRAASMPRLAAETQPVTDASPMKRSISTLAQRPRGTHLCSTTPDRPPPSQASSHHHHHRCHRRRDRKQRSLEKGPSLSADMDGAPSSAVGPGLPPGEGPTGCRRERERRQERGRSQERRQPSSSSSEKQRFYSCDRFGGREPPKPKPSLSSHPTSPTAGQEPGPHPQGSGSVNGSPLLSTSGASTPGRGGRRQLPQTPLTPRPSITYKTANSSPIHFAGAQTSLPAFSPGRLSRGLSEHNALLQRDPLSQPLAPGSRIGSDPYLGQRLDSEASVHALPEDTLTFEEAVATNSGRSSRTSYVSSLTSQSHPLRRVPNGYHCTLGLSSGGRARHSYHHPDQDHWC
Chain of N-type calcium channel (P54284 whole entry partner): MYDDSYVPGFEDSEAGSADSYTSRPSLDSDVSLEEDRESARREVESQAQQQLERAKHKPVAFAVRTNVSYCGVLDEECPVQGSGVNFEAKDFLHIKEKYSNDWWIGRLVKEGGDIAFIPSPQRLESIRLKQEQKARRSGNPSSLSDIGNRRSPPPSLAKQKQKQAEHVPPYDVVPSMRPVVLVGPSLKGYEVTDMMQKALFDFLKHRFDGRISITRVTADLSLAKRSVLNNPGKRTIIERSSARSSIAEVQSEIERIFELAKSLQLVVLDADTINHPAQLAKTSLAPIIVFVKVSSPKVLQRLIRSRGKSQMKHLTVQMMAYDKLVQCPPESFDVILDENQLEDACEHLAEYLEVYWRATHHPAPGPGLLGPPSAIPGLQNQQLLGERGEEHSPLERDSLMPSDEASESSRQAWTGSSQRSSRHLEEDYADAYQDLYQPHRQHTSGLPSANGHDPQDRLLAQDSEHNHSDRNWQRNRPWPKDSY
Chain of N-type calcium channel (P54289 25-956 partner limits assumed): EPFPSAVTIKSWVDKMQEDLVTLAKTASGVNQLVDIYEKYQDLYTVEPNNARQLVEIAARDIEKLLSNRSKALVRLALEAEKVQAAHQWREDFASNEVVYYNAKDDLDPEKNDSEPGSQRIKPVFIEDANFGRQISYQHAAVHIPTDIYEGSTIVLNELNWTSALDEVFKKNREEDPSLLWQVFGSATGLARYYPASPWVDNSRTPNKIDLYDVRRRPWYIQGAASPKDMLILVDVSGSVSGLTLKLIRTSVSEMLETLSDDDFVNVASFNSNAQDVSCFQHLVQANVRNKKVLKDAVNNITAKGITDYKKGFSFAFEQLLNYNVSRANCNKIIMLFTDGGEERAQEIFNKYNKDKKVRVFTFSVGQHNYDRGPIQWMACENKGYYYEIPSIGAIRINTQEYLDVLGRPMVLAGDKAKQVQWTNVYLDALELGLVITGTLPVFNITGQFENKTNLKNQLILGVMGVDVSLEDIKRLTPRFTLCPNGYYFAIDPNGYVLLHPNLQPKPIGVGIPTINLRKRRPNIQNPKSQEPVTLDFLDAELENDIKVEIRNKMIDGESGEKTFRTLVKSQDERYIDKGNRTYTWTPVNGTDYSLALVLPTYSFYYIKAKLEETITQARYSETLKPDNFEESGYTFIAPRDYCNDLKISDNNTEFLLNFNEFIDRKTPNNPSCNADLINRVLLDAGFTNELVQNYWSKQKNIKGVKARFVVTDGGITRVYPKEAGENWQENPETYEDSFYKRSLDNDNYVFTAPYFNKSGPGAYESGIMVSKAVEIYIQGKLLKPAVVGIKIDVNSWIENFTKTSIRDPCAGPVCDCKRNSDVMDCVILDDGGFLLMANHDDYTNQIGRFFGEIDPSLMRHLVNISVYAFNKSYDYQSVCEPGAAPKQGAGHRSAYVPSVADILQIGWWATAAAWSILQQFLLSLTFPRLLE
Chain of N-type calcium channel (P54289 957-1103 partner limits assumed): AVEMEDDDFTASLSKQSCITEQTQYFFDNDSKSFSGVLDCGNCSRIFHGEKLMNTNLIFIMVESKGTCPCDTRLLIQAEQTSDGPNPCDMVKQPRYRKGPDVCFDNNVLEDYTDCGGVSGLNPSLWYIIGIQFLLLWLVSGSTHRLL

NK-1 receptor = conditions: phenylbenzoquinone-induced writhing and formalin test; compared with morphine; cited from earlier work

IC50 (N-type calcium channel) | Structure (SMILES) | also measured
– | Clc1ccc(Nc2cc(Nc3ccccc3N3CCOCC3)nc3ccccc23)cc1Cl [Example 2, N4-(3,4-Dichloro-phenyl)-N2-(2-morpholin-4-yl-phenyl)-quinoline-2,4-diamine] | Formalin test % inhibition (dose, time route) [1]: 42 (60, 40, IP) %
4.01 µM | Nc1ccccc1Nc1cc(Nc2ccc(Cl)c(Cl)c2)c2cccc(F)c2n1 [Example 14, N2-(2-Amino-phenyl)-N4-(3,4-dichloro-phenyl)-8-fluoro-quinoline-2,4-diamine] | –
9.82 µM | Nc1ccccc1Nc1cc(Nc2ccc(Cl)c(Cl)c2)c2ccccc2n1 [Example 27, N2-(2-amino-phenyl)-N4-(3,4-dichloro-phenyl)-quinoline-2,4-diamine] | –
– | COc1ccccc1CC(=N)N1C[C@@H]2C(=O)CCC(c3ccccc3)(c3ccccc3)[C@@H]2C1 [RP 67,580] | analgesia in chemo-nociception tests (NK-1 receptor): produced analgesia with potency comparable to that of morphine
